# From patent publication US20240247031A1, “COMPOSITION FOR TREATING CANCER CONTAINING TELOMERASE-TARGETING GNRH ANTAGONIST-DERIVED PEPTIDE HS1002” (Research & Business Foundation Sungkyunkwan University, priority 2023, published 2024)
# Columns and labels:
# serum testosterone = assay: Serum testosterone level and seminal vesicle weight after repeated injection (FIG. 15); format: in vivo, mouse; conditions: male BALB/c mice
# Method: 6-week-old male BALB/c mice (Jung Ang Lab Animal Inc., Seoul, South Korea) were subcutaneously injected with vehicle or 1 mg/kg/day HS1002 for 10 days. Blood samples were collected 5 h after initial injection and 5 h after last injection. The serum concentration of testosterone was determined using a testosterone ELISA kit (ALPCO Diagnostics, Salem, NH, USA).
# GnRH agonists stimulate the release of LH and FSH by binding to GnRHR located on the pituitary gonadotropes and consequently stimulate the secretion of steroid hormone from the gonads. However, continuous exposure to the GnRH agonist results in the downregulation of desensitization of GnRHR and eventually decreases production of testosterone. The inhibitory effect on the pituitary gonadal axis has a role in the anti-prostate cancer effects of GnRH analogs. Based on the HS1002 peptide design strategy, to validate whether HS1002 functions as a GnRHR ligand, the serum testosterone level in male mice was tested after repeated subcutaneous injections of HS1002.
# [1] = system: prostate cancer cell line (LNCaP); assay: MTT cytotoxicity comparison of peptides at the same concentration (FIG. 6); format: cell-based, human; conditions: 300 μM, 48 h, 1% FBS, among GV1001, GnRH, HS1001, HS1002
# Method: The prostate cancer cell line (LNCaP), in which the reactivity of HS1002 to hTERT had been best, were used to investigate the cytotoxic effects of GV1001, GnRH, HS1001, and HS1002 under conditions of 1,500 cells/well, 1% FBS, and 48-hour treatment. The prostate cancer cells were seeded at 1.5×10^3 cells per well in a 96-well plate, and then incubated in an incubator for one day. Thereafter, the cells were treated with HS1001, HS1002, GV1001, and GnRH diluted to (300, 200, 100, and 50 μM) in fresh media. After 48-h incubation, an MTT reagent (3-(4,5-dimethylthiazol-2-yl)-2,5-diphenyltetrazolium bromide, Sigma-Aldrich, M6494) was added, and subsequently the plate was shielded from light and kept in an incubator for 3 h. Thereafter, the MTT solution was discarded, and 100 μL of dimethyl sulfoxide (DMSO, 99.9%, HPLC grade, DAEJUNG CHEMICALS & METALS, 3047-2304) was added to each well, and subsequently the plate was shielded from light and then left at room temperature for 20 min. After that, the absorbance was measured at 540 nm using a microplate reader.
# telomerase = assay: Telomerase activity quantification qPCR in treated LNCaP cells (FIG. 10, 11); format: cell-based, human; conditions: FIG. 11
# Method: After treatment with GV1001, HS1001, HS1002, and GnRH, the changes in hTERT mRNA and protein expression level were investigated for each peptide. The drug treatment was performed every 24 h considering the stability of peptides in aqueous solutions. To investigate the telomerase activity reducing effect of the peptides, prostate cancer cell lines (LNCaP) were treated with each drug at 300 μM every 24 h for a total of 72 h and then measured for telomerase activity through qPCR. The proteins in a cell lysate were quantified to obtain a telomerase product extended by the same amount of proteins, and qPCR was performed using the telomerase as a template.
# In the treatment with the peptides, the change in telomerase activity was investigated. The cells were cultured in 100-mm plates each, and about 24 h later, the cells were treated with the peptides synthesized in Example 3 at a concentration of 300 μM before incubation. The cells were cultured in a 37° C., 5% CO2 incubator using 1% FBS RPMI media. The cells were harvested 72 h after the peptide treatment and measured for telomerase activity. A telomerase activity quantification qPCT analysis kit (ScienCell, Carlsbad, CA, USA) was used.
# hTERT = hTERT mRNA and protein expression, western blot and qPCR (FIG. 10, 11); format: cell-based, human; conditions: LNCaP, different concentrations, western blot
# Method: To analyze the changes in the hTERT expression level and telomerase activity by the treatment with the produced peptides, real-time PCR was performed. Total RNA was extracted from cells by using an Easy-blue RNA extraction reagent (Intron, Korea), and subsequently, the extracted RNA was reverse transcribed using M-ML V reverse transcriptase (Invitrogen, CA). The PCR reaction was then performed using a LightCycler 480 SYBR Green I Master (Roche, Germany) according to the manufacturer's instructions. […]
# Quantitative real-time RT-PCR (qRT-PCR) was performed using a Power SYBR Green 1-Step Kit and an ABI 7000 Real Time PCR System (Applied Biosystems, Carlsbad, CA, USA) according to the manufacturer's indications. […] The results were expressed as the ratio of target PCR product to GAPDH product. […] The quantification was performed using the ΔΔCT method (Applied Biosystems) with the RQ manager 1.2 software. Data are expressed as mean±SD. […]
# After treatment with GV1001, HS1001, HS1002, and GnRH, the changes in hTERT mRNA and protein expression level were investigated for each peptide. […] To investigate the telomerase activity reducing effect of the peptides, prostate cancer cell lines (LNCaP) were treated with each drug at 300 μM every 24 h for a total of 72 h and then measured for telomerase activity through qPCR. […]
structure (smiles),measurement,setting,value
CCNC(=O)[C@@H]1CCCN1C(=O)[C@@H](NC(=O)[C@H](Cc1ccccc1)NC(=O)[C@H](CCCNC(=N)N)NC(=O)[C@H](CC(C)C)NC(=O)[C@H](CCCNC(=N)N)NC(=O)[C@H](Cc1ccc(O)cc1)NC(=O)[C@H](CO)NC(=O)[C@H](Cc1c[nH]c2ccccc12)NC(=O)[C@H](Cc1c[nH]cn1)NC(=O)[C@@H]1CCC(=O)N1)[C@@H](C)CC [HS1002],serum testosterone level increase compared to the vehicle-injected group,"serum testosterone; 1 mg/kg s.c., 5 h after the 1st injection",2.37 fold
same,seminal vesicle weights,"serum testosterone; 1 mg/kg/day s.c., 10 days, vs vehicle",significantly reduced
same,serum testosterone level,"serum testosterone; 1 mg/kg/day s.c., at 10 days after repeated injection, vs vehicle",significantly lower
same,cytotoxicity to prostate cancer cells,[1],cytotoxicity to prostate cancer cells was highest
same,telomerase activity compared with GV1001,telomerase,better telomerase activity than GV1001
same,"hTERT protein expression, concentration dependence",hTERT,reduced with an increasing concentration
